Data: patent publication US11485741B2, “Macrocyclic toll-like receptor 7 (TLR7) agonists” (BRISTOL-MYERS SQUIBB COMPANY, priority 2018, dated 2022)
Read-outs that look alike come from different tables or passages of the source.

What was measured:
human TLR7 = target: T1, human TLR7 (Homo sapiens, UniProt Q9NYK1); experiment: HEK-Blue TLR7 reporter assay (SEAP reporter); type: cell-based; details: HEK-Blue TLR7 cells, 18 h treatment, SEAP readout; average if more than one assay; read-out: TLR7 Agonism HEK Blue ™ Assay EC50
T1 construct: host or cells: HEK-Blue TLR7 cells (engineered human embryonic kidney cells)
T1 sequence (Q9NYK1 27-1049): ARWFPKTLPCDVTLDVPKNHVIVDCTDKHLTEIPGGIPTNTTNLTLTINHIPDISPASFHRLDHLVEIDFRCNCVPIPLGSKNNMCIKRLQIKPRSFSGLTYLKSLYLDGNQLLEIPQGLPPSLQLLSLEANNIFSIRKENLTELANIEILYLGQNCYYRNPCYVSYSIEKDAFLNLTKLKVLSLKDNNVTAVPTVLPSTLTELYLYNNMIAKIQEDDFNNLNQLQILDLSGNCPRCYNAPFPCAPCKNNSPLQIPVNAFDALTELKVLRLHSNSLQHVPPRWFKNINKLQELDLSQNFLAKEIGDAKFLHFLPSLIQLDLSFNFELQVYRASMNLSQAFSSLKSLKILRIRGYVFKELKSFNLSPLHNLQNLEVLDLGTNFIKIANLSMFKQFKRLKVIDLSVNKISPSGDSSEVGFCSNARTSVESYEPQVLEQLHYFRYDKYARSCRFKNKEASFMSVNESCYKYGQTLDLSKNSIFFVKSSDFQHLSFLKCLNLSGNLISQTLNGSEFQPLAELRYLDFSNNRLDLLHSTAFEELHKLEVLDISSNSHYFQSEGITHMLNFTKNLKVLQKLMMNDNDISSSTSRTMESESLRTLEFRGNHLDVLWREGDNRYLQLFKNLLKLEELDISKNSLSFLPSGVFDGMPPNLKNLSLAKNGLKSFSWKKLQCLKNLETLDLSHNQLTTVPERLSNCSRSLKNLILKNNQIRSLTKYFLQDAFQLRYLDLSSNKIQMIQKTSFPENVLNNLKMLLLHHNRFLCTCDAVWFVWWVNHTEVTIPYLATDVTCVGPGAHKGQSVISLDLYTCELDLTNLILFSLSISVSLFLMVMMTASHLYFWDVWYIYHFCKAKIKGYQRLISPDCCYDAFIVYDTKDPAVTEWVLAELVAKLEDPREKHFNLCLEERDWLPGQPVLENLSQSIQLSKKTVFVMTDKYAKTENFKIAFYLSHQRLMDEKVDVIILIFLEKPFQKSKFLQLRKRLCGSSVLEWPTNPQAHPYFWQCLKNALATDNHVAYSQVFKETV
Excerpt: Table A presents biological activity data for compounds disclosed herein. One set of data relates TLR7 agonism activity using the HEK-Blue™ TLR7 reporter assay, as described in Example 11 hereinbelow. Another set of data relates to the induction of interleukin 6 (IL-6), a cytokine that plays an important role in the TLR7 pathway. […] In some instances, more that one TLR7 agonism or IL-6 induction assay was made; if so, the reported value is an average.
This example describes a method for assaying TLR7 agonist activity of the compounds disclosed in this specification.
HEK-Blue™ TLR7 cells were added to each well of a 384-well tissue-culture plate (15,000 cells per well) and incubated 16-18 h at 37° C., 5% CO2. Compounds (100 nl) were dispensed into wells containing the HEK-Blue™ TLR cells and the treated cells were incubated at 37° C., 5% CO2. After 18 h treatment ten microliters of freshly-prepared Quanti-Blue™ reagent (Invivogen) was added to each well, incubated for 30 min (37° C., 5% CO2) and SEAP levels measured using an Envision plate reader (OD=620 nm). […] EC50's can be determined with software such as Graphpad Prism™.

interleukin 6 (IL-6) = experiment: Interleukin 6 induction assay in human whole blood (AlphaLISA); type: cell-based; details: 20 h at 37° C., 100% set by resiquimod reference at 10 μM, average if more than one assay, read-out: IL-6 Induction EC50 (nM) (normalized 10 μM)
Excerpt: Table A presents biological activity data for compounds disclosed herein. One set of data relates TLR7 agonism activity using the HEK-Blue™ TLR7 reporter assay, as described in Example 11 hereinbelow. Another set of data relates to the induction of interleukin 6 (IL-6), a cytokine that plays an important role in the TLR7 pathway. […] In some instances, more that one TLR7 agonism or IL-6 induction assay was made; if so, the reported value is an average. This example describes a method for assaying interleukin 6 (IL 6) induction by compounds disclosed in this specification. Compounds suspended in DMSO were transferred to individual wells of a Matrix Technologies clear, V-bottom 384-well plate using ECHO acoustic liquid handling technology (25 nL per well). Human whole-blood samples (25 uL) were added to each well using a CyBio FeliX liquid handling instrument and the plate was shaken on a plate shaker for three minutes before incubating the reaction mixtures at 37° C. for 20 h. Basel RPMI 1640 medium (supplemented with L-glutamine) was then added to each well (25 uL per well) prior to liberating plasma from each sample by centrifugation (450×g, 5 min, ambient temperature). Treated plasma samples (3 uL) were subsequently transferred to individual wells of a white, shallow, 384-well ProxiPlate (PerkinElmer) using the FeliX liquid handling instrument and their IL6 levels were measured using AlphaLISA technology as described by the manufacturer (PerkinElmer).

Row | SMILES | EC50 (human TLR7) | EC50 (interleukin 6 (IL-6); Homo sapiens, 20 h) | EC50 (interleukin 6 (IL-6))
1 | Nc1nc2nc3c1nc(O)n3Cc1ccc(-c3ccc(CNC4CCC4)cc3)c(c1)CCCCCCO2 [IIb-18] | 3.8 nM | 34 nM | –
2 | Nc1nc2nc3c1nc(O)n3Cc1ccc(-c3ccc(CNC4CCC4)cc3)c(c1)OCCCO2 [IIb-20] | 56 nM | 150 nM | –
3 | Nc1nc2nc3c1nc(O)n3Cc1ccc(-c3cccc(C(=O)NC4CNC4)c3)c(c1)C/C=C/CCO2 [IIb-31] | 6.8 nM | 28 nM | –
4 | Nc1nc2nc3c1nc(O)n3Cc1ccc(-c3ccc(C(=O)NC4CNC4)cc3)c(c1)C/C=C/CCO2 [IIb-32] | 4.1 nM | 32 nM | –
5 | Nc1nc2nc3c1nc(O)n3Cc1ccc(-c3cnn(CCN4CCOCC4)c3)c(c1)C/C=C/CCO2 [IIb-37] | 3.8 nM | 180 nM | –
6 | Nc1nc2nc3c1nc(O)n3Cc1ccc(-c3cnn(CC(=O)NC4CNC4)c3)c(c1)C/C=C/CCO2 [IIb-38] | 22 nM | 1000 nM | –
7 | Nc1nc2nc3c1nc(O)n3Cc1ccc(-c3cc(C(=O)NCCCN4CCCC4=O)[nH]n3)c(c1)C/C=C/CCO2 [IIb-40] | 14 nM | 160 nM | –
8 | Nc1nc2nc3c1nc(O)n3Cc1ccc(OC3CCNCC3)c(c1)C/C=C/CCO2 [IIc-01] | 3.7 nM | 5 nM | –
9 | Nc1nc2nc3c1nc(O)n3Cc1cc(cc(OC3CCNCC3)c1)C/C=C/CCO2 [IIc-02] | 23 nM | 200 nM | –
10 | Nc1nc2nc3c1nc(O)n3Cc1ccc(Nc3cccc(CNC4CCC4)c3)c(c1)C/C=C/CCO2 [IId-01] | 15 nM | 60 nM | –
11 | Nc1nc2nc3c1nc(O)n3Cc1ccc(OCC(=O)NC3CNC3)c(c1)C/C=C\CCO2 [IIe-01] | 5.3 nM | 40 nM | –
12 | Nc1nc2nc3c1nc(O)n3Cc1ccc(OCC(=O)NC3CNC3)c(c1)C/C=C/CCO2 [IIe-02] | 70 nM | 1100 nM | –

Now those with a lower EC50 (human TLR7), led by results:

Row | EC50 (human TLR7) | SMILES | EC50 (interleukin 6 (IL-6); Homo sapiens, 20 h) | EC50 (interleukin 6 (IL-6))
13 | 0.91 nM | Nc1nc2nc3c1nc(O)n3Cc1ccc(-c3ccc(CNC4CCC4)cc3)c(c1)C/C=C\CCCO2 [IIb-17] | 0.99 nM | –
14 | 1 nM | Nc1nc2nc3c1nc(O)n3Cc1ccc(-c3ccc(CNC4CCC4)cc3)c(c1)OCCCCO2 [IIb-19] | 1.4 nM | –
15 | 0.42 nM | Nc1nc2nc3c1nc(O)n3Cc1ccc(-c3ccc(CNC4CC(O)C4)cc3)c(c1)C/C=C\CCO2 (stereo not shown) [IIb-22] | 1.4 nM | –
16 | 0.81 nM | Nc1nc2nc3c1nc(O)n3Cc1ccc(-c3ccc(CNC4CC(O)C4)cc3)c(c1)C/C=C/CCO2 (stereo not shown) [IIb-23] | 2 nM | –
17 | 0.68 nM | Nc1nc2nc3c1nc(O)n3Cc1ccc(-c3ccc(CNC4CC(O)C4)cc3)c(c1)C/C=C/CCO2 (stereo not shown) [IIb-24] | – | 2.7 nM
18 | 1.5 nM | Nc1nc2nc3c1nc(O)n3Cc1ccc(-c3ccc(CNC4CC(F)(F)C4)cc3)c(c1)C/C=C/CCO2 [IIb-25] | 0.81 nM | –
19 | 0.26 nM | CC1(NCc2ccc(-c3ccc4cc3C/C=C/CCOc3nc(N)c5nc(O)n(c5n3)C4)cc2)CCC1 [IIb-26] | 1 nM | –
20 | 0.62 nM | CC(=O)N1CC(NCc2ccc(-c3ccc4cc3C/C=C\CCOc3nc(N)c5nc(O)n(c5n3)C4)cc2)C1 [IIb-27] | 4 nM | –
21 | 3.2 nM | Nc1nc2nc3c1nc(O)n3Cc1ccc(-c3cccc(C(=O)NC4CNC4)c3)c(c1)C/C=C\CCO2 [IIb-29] | 24 nM | –
22 | 1.6 nM | Nc1nc2nc3c1nc(O)n3Cc1ccc(-c3ccc(C(=O)NC4CNC4)cc3)c(c1)C/C=C\CCO2 [IIb-30] | 36 nM | –
23 | 0.12 nM | Nc1nc2nc3c1nc(O)n3Cc1ccc(-c3ccc(CNC4CCOCC4)cc3)c(c1)C/C=C\CCO2 [IIb-34] | 0.76 nM | –
